The record followed here is patent EP4678638A1, “NEW E3 UBIQUITIN LIGASE LIGAND, PROTEIN DEGRADATION AGENT AND USE THEREOF” (priority 2023, dated 2024).

Assay [1] deals with T1, ALK (Homo sapiens, UniProt Q96SW2+Q9HC35+Q9UM73).
T1 construct: evaluate the effects of the compounds of the present disclosure on the expression of target proteins in cells; endogenous in cells; host or cells: H2228
Put plainly: Western blot degradation of ALK (H2228 Cell). It is filed as cell-based. The conditions noted are these: Table D5. An outline of the steps: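 Degradation is assessed by immunoblotting lysates of treated cells. Target bands are quantified by grayscale and normalised to an internal control, so degradation rate equals 100% minus % remaining.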

The test system of assay [2] is H2228. Put plainly: CCK-8 proliferation, NCI-H2228 (H2228). The conditions noted are these: Homo sapiens, NCI-H2228; Table B6, compounds designed based on the ALK inhibitors; H2228 cells; read-out: Inhibitory activity (IC50, nM) on tumor cell proliferation, H2228. It is filed as cell-based. An outline of the steps: (§1)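 CCK-8 viability readout; IC50 from growth-inhibition curve fitting. Cells plated, dosed 24h later with a 10-point series, top 10µM, 5-fold steps. Culture at 37°C, 5% CO2.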

Assay [3] deals with MCF7. The assay is described as follows: CCK-8 proliferation, MCF7 (MCF-7). The conditions noted are these: Homo sapiens, MCF7; Table B6, compounds designed based on the ALK inhibitors; MCF-7 cells; read-out: Inhibitory activity (IC50, nM) on tumor cell proliferation, MCF-7. It is filed as cell-based. An outline of the steps:
as §1

The test system of assay [4] is H1975. Put plainly: CCK-8 proliferation, NCI-H1975 (H1975). It is filed as cell-based, Human. The conditions noted are these: Homo sapiens, NCI-H1975; Table B6, compounds designed based on the ALK inhibitors; H1975 cells; read-out: Inhibitory activity (IC50, nM) on tumor cell proliferation, H1975. An outline of the steps: as §1
The subject of assay [5] is SR. Put plainly: CCK-8 proliferation, SR. It is filed as cell-based, Human. The conditions noted are these: Homo sapiens; Table B6, compounds designed based on the ALK inhibitors; SR cells; read-out: Inhibitory activity (IC50, nM) on tumor cell proliferation, SR. An outline of the steps:
as §1

Assay [6] relates to MM.1S. Put plainly: CCK-8 proliferation, MM.1S. The conditions noted are these: Homo sapiens, MM1.S; Table B6, compounds designed based on the ALK inhibitors; MM.1S cells; read-out: Inhibitory activity (IC50, nM) on tumor cell proliferation, MM.1S. It is filed as cell-based. An outline of the steps: as §1
Assay [7] addresses T2, human Cereblon WT GST-tagged protein (Homo sapiens, UniProt Q96SW2).
T2 construct: purchased CISBIO 64BDCRBNPEH
The assay is described as follows: CRBN binding, HTRF (CEREBLON BINDING kit). The conditions noted are these: Table II-2, CRBN binding screening, HTRF; for inhibition at 0.5 µM: read-out: Inhibition rate (%) at 0.5µM; for inhibition at 2 µM: read-out: Inhibition rate (%) at 2 µM. An outline of the steps: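 Competitive HTRF: GST-tagged human WT Cereblon mixed with compound, Thalidomide-Re tracer and GST Eu antibody, incubated 3 h at room temperature. Signals read at 620 and 665 nm.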

T2 sequence (Q96SW2 whole entry): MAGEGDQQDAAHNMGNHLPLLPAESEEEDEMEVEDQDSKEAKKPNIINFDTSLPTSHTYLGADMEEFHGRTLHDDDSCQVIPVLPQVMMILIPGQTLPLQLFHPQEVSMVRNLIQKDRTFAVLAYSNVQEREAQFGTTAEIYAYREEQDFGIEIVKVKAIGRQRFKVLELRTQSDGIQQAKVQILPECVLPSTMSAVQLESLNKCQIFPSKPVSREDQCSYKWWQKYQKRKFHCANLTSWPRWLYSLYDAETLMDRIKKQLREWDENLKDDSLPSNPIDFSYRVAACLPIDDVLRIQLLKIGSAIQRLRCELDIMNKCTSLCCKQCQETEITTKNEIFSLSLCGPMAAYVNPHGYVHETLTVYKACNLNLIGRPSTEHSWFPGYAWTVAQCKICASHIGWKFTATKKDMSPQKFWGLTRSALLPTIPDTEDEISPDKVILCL
T1 sequence (Q9HC35+Q9UM73 fused): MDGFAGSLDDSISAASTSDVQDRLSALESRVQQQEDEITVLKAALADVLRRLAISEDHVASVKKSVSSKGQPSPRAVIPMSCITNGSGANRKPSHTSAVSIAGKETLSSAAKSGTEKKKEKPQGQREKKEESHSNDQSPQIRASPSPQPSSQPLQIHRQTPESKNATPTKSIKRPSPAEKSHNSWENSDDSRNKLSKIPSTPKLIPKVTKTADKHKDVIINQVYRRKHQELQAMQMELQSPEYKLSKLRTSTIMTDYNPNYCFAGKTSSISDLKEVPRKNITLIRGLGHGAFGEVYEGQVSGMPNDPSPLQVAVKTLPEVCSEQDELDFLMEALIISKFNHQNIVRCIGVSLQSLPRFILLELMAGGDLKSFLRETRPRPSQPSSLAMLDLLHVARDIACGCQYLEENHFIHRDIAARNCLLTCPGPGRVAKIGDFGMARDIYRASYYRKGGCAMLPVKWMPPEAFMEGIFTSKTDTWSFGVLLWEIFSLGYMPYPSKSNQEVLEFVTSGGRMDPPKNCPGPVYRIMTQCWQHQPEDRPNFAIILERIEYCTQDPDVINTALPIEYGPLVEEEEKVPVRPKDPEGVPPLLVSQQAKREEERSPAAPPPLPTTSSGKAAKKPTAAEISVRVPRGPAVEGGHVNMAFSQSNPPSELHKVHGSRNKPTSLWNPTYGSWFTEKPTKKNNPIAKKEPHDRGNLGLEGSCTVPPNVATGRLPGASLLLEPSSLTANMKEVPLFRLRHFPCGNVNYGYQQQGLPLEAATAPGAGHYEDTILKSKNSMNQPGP
T1 sequence (Q96SW2 whole entry): as the sequence (Q96SW2 whole entry) above
T1 sequence (Q16531 whole entry partner): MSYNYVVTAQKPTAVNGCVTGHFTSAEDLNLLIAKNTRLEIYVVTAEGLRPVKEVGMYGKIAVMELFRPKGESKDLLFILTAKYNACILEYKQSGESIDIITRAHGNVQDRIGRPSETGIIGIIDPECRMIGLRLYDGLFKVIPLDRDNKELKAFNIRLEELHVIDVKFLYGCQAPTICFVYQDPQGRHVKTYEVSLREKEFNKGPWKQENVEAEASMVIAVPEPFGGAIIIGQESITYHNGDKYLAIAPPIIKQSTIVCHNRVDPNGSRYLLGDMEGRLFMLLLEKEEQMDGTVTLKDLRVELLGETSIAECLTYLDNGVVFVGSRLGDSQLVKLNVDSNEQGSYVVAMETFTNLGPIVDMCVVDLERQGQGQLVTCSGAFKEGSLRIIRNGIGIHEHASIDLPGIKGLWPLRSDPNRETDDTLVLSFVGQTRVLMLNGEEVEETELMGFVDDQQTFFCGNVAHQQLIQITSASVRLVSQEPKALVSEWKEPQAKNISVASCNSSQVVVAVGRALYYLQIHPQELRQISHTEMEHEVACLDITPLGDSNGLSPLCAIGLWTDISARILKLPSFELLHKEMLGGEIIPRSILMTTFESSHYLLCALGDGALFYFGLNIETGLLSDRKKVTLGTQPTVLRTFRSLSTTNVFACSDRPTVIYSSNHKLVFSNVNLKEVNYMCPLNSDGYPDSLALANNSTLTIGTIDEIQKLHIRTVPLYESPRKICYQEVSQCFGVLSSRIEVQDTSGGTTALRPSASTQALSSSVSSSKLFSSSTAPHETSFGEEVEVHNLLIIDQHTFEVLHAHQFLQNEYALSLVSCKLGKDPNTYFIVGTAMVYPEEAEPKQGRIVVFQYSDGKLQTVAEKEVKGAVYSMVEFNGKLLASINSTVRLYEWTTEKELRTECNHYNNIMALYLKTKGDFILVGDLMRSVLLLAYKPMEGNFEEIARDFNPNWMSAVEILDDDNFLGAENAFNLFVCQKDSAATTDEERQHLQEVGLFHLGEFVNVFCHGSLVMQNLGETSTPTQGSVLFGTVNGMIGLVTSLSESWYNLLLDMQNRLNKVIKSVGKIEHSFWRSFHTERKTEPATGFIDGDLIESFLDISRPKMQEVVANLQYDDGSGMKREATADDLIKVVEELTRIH

`COc1cc(N2CCC(N(C)Cc3ccc(N4CCC(=O)NC4=O)nc3)CC2)ccc1Nc1ncc(Cl)c(Nc2ccccc2P(C)(C)=O)n1` [GT-07691, 1-(5-(((1-(4-((5-chloro-4-((2-(dimethylphosphoryl)phenyl)amino)pyrimidin-2-yl)amino)-3-methoxyphenyl)piperidin-4-yl)(methyl)amino)methyl)pyridin-2-yl)dihydropyrimidine-2,4(1H,3H)-dione]: the “Degradation of substrate protein ALK (substrate protein remaining %)” value (shortened to “Degradation … (substrate protein remaining %)”) in assay [1] was “A (A is defined as 0% ≤ substrate protein remaining % ≤ 80%)”. The IC50 in assay [2] lay in the range of 50 to 100 nM; in assay [3], 100 to 500 nM; in assay [4], 100 to 500 nM; in assay [5] it was 1 to 10 nM.
For `Cc1cc(Nc2ncc(Cl)c(Nc3ccccc3S(=O)(=O)C(C)C)n2)c(OC(C)C)cc1C1CCN(Cc2ccc(C3CCC(=O)NC3=O)cn2)CC1` (stereo not drawn) [GT-07600, 3-(6-((4-(4-((5-chloro-4-((2-(isopropylsulfonyl)phenyl)amino)pyrimidin-2-yl)amino)-5-isopropoxy-2-methylphenyl)piperidin-1-yl)methyl)pyridin-3-yl)piperidine-2,6-dione], the “Degradation … (substrate protein remaining %)” value in assay [1] is on record as “A (A is defined as 0% ≤ substrate protein remaining % ≤ 80%)”. Also, the IC50 in assay [2] was in the range of 50 to 100 nM; in assay [3], 100 to 500 nM; in assay [6], 500 to 1000 nM; in assay [5], 10 to 50 nM.
Turning to `COc1cc(N2CCC(N(C)Cc3ccc(C4CCC(=O)NC4=O)cn3)CC2)ccc1Nc1ncc(Cl)c(Nc2ccccc2P(C)(C)=O)n1` (stereo not drawn) [GT-07698, 3-(6-(((1-(4-((5-chloro-4-((2-(dimethylphosphoryl)phenyl)amino)pyrimidin-2-yl)amino)-3-methoxyphenyl)piperidin-4-yl)(methyl)amino)methyl)pyridin-3-yl)piperidine-2,6-dione], the “Degradation … (substrate protein remaining %)” value in assay [1] is recorded as “A (A is defined as 0% ≤ substrate protein remaining % ≤ 80%)”. Besides, the IC50 in assay [2] fell in the range of 100 to 500 nM; in assay [3], 100 to 500 nM; in assay [4], 500 to 1000 nM; in assay [5], 10 to 50 nM.
Regarding `COc1cc(N2CCC(N(C)Cc3ccc(N4CCC(=O)NC4=O)cn3)CC2)ccc1Nc1ncc(Cl)c(Nc2ccccc2P(C)(C)=O)n1` [GT-07617, 1-(6-(((1-(4-((5-chloro-4-((2-(dimethylphosphoryl)phenyl)amino)pyrimidin-2-yl)amino)-3-methoxyphenyl)piperidin-4-yl)(methyl)amino)methyl)pyridin-3-yl)dihydropyrimidine-2,4(1H,3H)-dione], the “Degradation … (substrate protein remaining %)” value in assay [1] is recorded as “A (A is defined as 0% ≤ substrate protein remaining % ≤ 80%)”. Further, the IC50 in assay [2] lay in the range of 50 to 100 nM; in assay [3], 100 to 500 nM; in assay [4] it was 500 to 1000 nM; in assay [5], 10 to 50 nM.
Turning to `COc1cc(N2CCN(Cc3cccc(NC4CCC(=O)NC4=O)c3)CC2)ccc1Nc1ncc(Cl)c(Nc2ccccc2P(C)(C)=O)n1` (stereo not drawn) [GT-07351, 3-((3-((4-(4-((5-chloro-4-((2-(dimethylphosphoryl)phenyl)amino)pyrimidin-2-yl)amino)-3-methoxyphenyl)piperazin-1-yl)methyl)phenyl)amino)pip eridine-2,6-dione], the “Degradation … (substrate protein remaining %)” value in assay [1] was “A (A is defined as 0% ≤ substrate protein remaining % ≤ 80%)”. For the same compound, the IC50 in assay [2] is 100 to 500 nM; in assay [3] it was 500 to 1000 nM; in assay [4], 500 to 1000 nM; in assay [5], 10 to 50 nM.
With `COc1cc(N2CCC(N3CCN(Cc4cncc(C5CCC(=O)NC5=O)c4)CC3)CC2)ccc1Nc1ncc(Cl)c(Nc2ccccc2P(C)(C)=O)n1` (stereo not drawn) [GT-07614, 3-(5-((4-(1-(4-((5-chloro-4-((2-(dimethylphosphoryl)phenyl)amino)pyrimidin-2-yl)amino)-3-methoxyphenyl)piperidin-4-yl)piperazin-1-yl)methyl)pyridin-3-yl)piperidine-2,6-dione], the “Degradation … (substrate protein remaining %)” value in assay [1] was “A (A is defined as 0% ≤ substrate protein remaining % ≤ 80%)”. Further, the IC50 fell in the range of 100 to 500 nM in assay [2], 500 to 1000 nM in assay [3], 500 to 1000 nM in assay [4] and 1 to 10 nM in assay [5].
In the case of `CCc1cc2c(cc1N1CCN(Cc3ccc(C4CCC(=O)NC4=O)cc3)CC1)C(C)(C)c1[nH]c3cc(C#N)ccc3c1C2=O` (stereo not drawn) [GT-07323, 8-(4-(4-(2,6-dioxopiperidin-3-yl)benzyl)piperazin-1-yl)-9-ethyl-6,6-dimethyl-11-oxo-6,11-dihydro-5H-benzo[b]carbazole-3-carbonitrile], the “Degradation … (substrate protein remaining %)” value in assay [1] is listed as “A (A is defined as 0% ≤ substrate protein remaining % ≤ 80%)”. Also, the IC50 was 100 to 500 nM in assay [2], 500 to 1000 nM in assay [6] and 1 to 10 nM in assay [5].
As to `COc1cc(N2CCC(N(C)Cc3cc(C4CCC(=O)NC4=O)cnc3F)CC2)ccc1Nc1ncc(Cl)c(Nc2ccccc2P(C)(C)=O)n1` (stereo not drawn) [GT-07696, 3-(5-(((1-(4-((5-chloro-4-((2-(dimethylphosphoryl)phenyl)amino)pyrimidin-2-yl)amino)-3-methoxyphenyl)piperidin-4-yl)(methyl)amino)methyl)-6-fluoropyridin-3-yl)piperidine-2,6-dione], in assay [1], the “Degradation … (substrate protein remaining %)” value is recorded as “A (A is defined as 0% ≤ substrate protein remaining % ≤ 80%)”. The IC50 in assay [2] was 100 to 500 nM; in assay [3] it was 500 to 1000 nM; in assay [4], 500 to 1000 nM; in assay [5], 10 to 50 nM.
`CCc1cc2c(cc1N1CCC(N3CCN(Cc4ccc(C5CCC(=O)NC5=O)c(F)c4)CC3)CC1)C(C)(C)c1[nH]c3cc(C#N)ccc3c1C2=O` (stereo not drawn) [GT-03763, 8-(4-(4-(4-(2,6-dioxopiperidin-3-yl)-3-fluorobenzyl)piperazin-1-yl)piperidin-1-yl)-9-ethyl-6,6-dimethyl-11-oxo-6,11-dihydro-5H-benzo[b]carbazole-3-carbonitrile]: the “Degradation … (substrate protein remaining %)” value in assay [1] is “A (A is defined as 0% ≤ substrate protein remaining % ≤ 80%)”. Besides, in assay [7], the inhibition at 0.5 µM was 40 to 53% and the inhibition at 2 µM fell in the range of 53 to 60%. Further, the IC50 in assay [6] was in the range of 100 to 500 nM. In addition, the IC50 in assay [5] is 1 to 10 nM.
In the case of `COc1cc(N2CCN(Cc3ccc(N4CCC(=O)NC4=O)cc3)CC2)ccc1Nc1ncc(Cl)c(Nc2ccccc2P(C)(C)=O)n1` [GT-07345, 1-(4-((4-(4-((5-chloro-4-((2-(dimethylphosphoryl)phenyl)amino)pyrimidin-2-yl)amino)-3-methoxyphenyl)piperazin-1-yl)methyl)phenyl)dihydropyr imidine-2,4(1H,3H)-dione], the “Degradation … (substrate protein remaining %)” value in assay [1] was “A (A is defined as 0% ≤ substrate protein remaining % ≤ 80%)”. Also, the IC50 in assay [2] was 100 to 500 nM; in assay [3] it was 500 to 1000 nM; in assay [4], 500 to 1000 nM; in assay [5], 10 to 50 nM.
Turning to `CCc1cc2c(cc1N1CCC(N3CCN(Cc4ccc(C5CCC(=O)NC5=O)cc4)CC3)CC1)C(C)(C)c1[nH]c3cc(C#N)ccc3c1C2=O` (stereo not drawn) [GT-03762, 8-(4-(4-(4-(2,6-dioxopiperidin-3-yl)benzyl)piperazin-1-yl)piperidin-1-yl)-9-ethyl-6,6-dimethyl-11-oxo-6,11-dihydro-5H-benzo[b]carbazole-3-carbonitrile], the “Degradation … (substrate protein remaining %)” value in assay [1] is recorded as “A (A is defined as 0% ≤ substrate protein remaining % ≤ 80%)”. In addition, in assay [7], the inhibition at 0.5 µM fell in the range of 40 to 53% and the inhibition at 2 µM was in the range of 60 to 80%. Besides, the IC50 in assay [6] lay in the range of 500 to 1000 nM. Moreover, the IC50 in assay [5] is 1 to 10 nM.
